According to patent publication US20240293367A1, “METHODS OF TREATING DISORDERS WITH A […]” (Cybin IRL Limited, priority 2023, published 2024):
Where “and” joins values, the source holds several entries; their conditions need not be identical. Equal entries are not always repeated.

Test: VAS ratings of 'Any drug effect' in the Phase I/IIa study
Assay type: in vivo, human
From the text: The visual analogue scale (VAS) is a psychometric response scale that can be used in questionnaires. It is a measurement instrument for subjective characteristics or attitudes that cannot be directly measured. When responding to a VAS item, respondents specify their level of agreement to a statement by indicating a position along a continuous line between two end points, usually a horizontal 100-mm line marked from “not at all,” “definitely not,” or the like, on the left to “extremely,” “definitely so,” or the like, on the right. The Bond and Lader VAS involves the subject indicating (with vertical marks) on sixteen horizontal 100-mm visual analogue scales how he/she feels. From these measurements, three main factors are calculated as described by Bond and Lader: alertness (from nine scores), contentedness (often called mood; from five scores), and calmness (from two scores). The Bowdle VAS and Drug Rating VAS provides the subject with items of the drug rating questionnaire: feel drug, like drug, and dislike drug. The VAS any drug effect involves the subject indicating (with vertical marks) on horizontal 100-mm visual analogue scales with the any drug effects item (“I can feel any drug effect”). In some embodiments, the subject has a maximum VAS score (e.g., Bond and Lader VAS, Bowdle VAS and Drug Rating VAS, and/or VAS any drug effect) of ≥60 mm after treatment. In some embodiments, the subject has a VAS score (e.g., Bond and Lader VAS, Bowdle VAS and Drug Rating VAS, and/or VAS any drug effect) of greater than or equal to 60 mm, 65 mm, 70 mm, 75 mm, 80 mm, 85 mm, 90 mm, or 95 mm, after treatment. In some embodiments, at least 50%, at least 55%, at least 60%, at least 65%, at least 70%, at least 75%, at least 80%, at least 85%, at least 90% of subjects treated with the methods described herein report a maximum VAS score (e.g., Bond and Lader VAS, Bowdle VAS and Drug Rating VAS, and/or VAS any drug effect) of greater than or equal to 60 mm, 65 mm, 70 mm, 75 mm, 80 mm, 85 mm, 90 mm, or 95 mm following treatment. In some embodiments, the subject has a maximum VAS any drug effect score of ≥60 mm after treatment. In some embodiments, the subject has a VAS any drug effect score of greater than or equal to 60 mm, 65 mm, 70 mm, 75 mm, 80 mm, 85 mm, 90 mm, or 95 mm, after treatment. In some embodiments, at least 50%, at least 55%, at least 60%, at least 65%, at least 70%, at least 75%, at least 80% of subjects treated with the methods described herein report a maximum VAS any drug effect score of greater than or equal to 60 mm, 65 mm, 70 mm, 75 mm, 80 mm, 85 mm, 90 mm, or 95 mm following treatment.
A visual analogue scale will be completed by all participants on each day of dosing (Day 1 and Day 8 or Day 22) and will consist of a 100 mm bipolar line with the far left side of the line marked not at all, and the far right side of the line marked extremely. Participants will be asked “Right now, do you feel any drug effects at all?” and participants in response will make a vertical mark on the line on study dosing days predose and at 0.5, 1, 2, 4, 6, 8 and 12 hours postdose.

Structure (SMILES): [2H]C([2H])([2H])N(C([2H])([2H])[2H])C([2H])([2H])C([2H])([2H])c1c[nH]c2cccc(O)c12 [psilocin-d10, 3-(2-(bis(methyl-d3)amino)ethyl-1,1,2,2-d4)-1H-indol-4-ol]
- subjects reporting maximum VAS-Any drug effect readings above 60 mm (8 mg oral, Cohort 2, 4 healthy volunteers): 75%
- Observed Mean Maximum VAS - Any drug effect (8 mg oral, Cohort 2 Day 8, NHV, N = 4): 77.2
- individual VAS-Any drug effect scores of subjects with meaningful scores (8 mg, Cohort 2): 100 mm and 97 mm and 89 mm
- subjects reporting maximum VAS-Any drug effect readings above 60 mm (10 mg oral, Cohort 3, 3 healthy volunteers): 66%
- Observed Mean Maximum VAS - Any drug effect (10 mg oral, Cohort 3 Day 8, NHV, N = 3): 78.3
- individual VAS-Any drug effect scores of subjects with meaningful scores (10 mg, Cohort 3): 100 mm
- Observed Mean Maximum VAS - Any drug effect (12 mg oral, Cohorts 4 and 5 MDD, Day 1 or Day 22, blinded data incl. placebo subjects): 80.7 and 80.7^3
- median maximum VAS-Any drug effect score (12 mg, Cohorts 4 and 5 MDD): 100 mm
- Observed Mean Maximum VAS - Any drug effect (16 mg oral, Cohort 6 MDD, Day 1 or Day 22, blinded data incl. placebo subjects, excluding vomited doses): 89.2 and 89.2^2,3
- median maximum VAS-Any drug effect score (16 mg, Cohort 6 MDD): 100 mm
- subjects reporting maximum VAS-Any drug effect readings above 60 mm (16 mg, Cohort 6 MDD): 79.2%
